Experimental data taken from US20180016244A1, “DEUTERIUM-SUBSTITUTED OXADIAZOLES” (Auspex Pharmaceuticals, Inc., priority 2015, published 2018).

Test: In vitro human liver microsomal stability assay
Assay type: in vitro ADME
Details: human liver microsomes 2 mg per mL protein, NADPH-generating system, 1 μM test compound, 37±1° C., 0-240 min, change relative to non-deuterated d0 (Example 1); for Half-Life % change over d0: degradation half-life
Protocol: In Vitro Liver Microsomal Stability Assay
Human liver microsomal stability assays were conducted at 2 mg per mL liver microsome protein with an NADPH-generating system consisting of NADP (1 mM, pH 7.4), […] (5 mM, pH 7.4), and glucose-6-phosphate dehydrogenase (I unit/mL).
Test compounds were prepared as solutions in DMSO and added to the assay mixture (1 μM, final concentration in incubation) to be incubated at 37±1° C. Reactions were initiated with the addition of cofactor and were stopped at 0, 60, 120, or 240 min after cofactor addition with stop reagent (0.2 mL acetonitrile). Samples were centrifuged (920×g for 10 min at 10° C.) in 96-well plates. Supernatant fractions were analyzed by LC-MS/MS to determine the percent remaining and estimate the degradation half-life of the test compounds.

Compound | Clearance % change over d0 [%] | Half-Life % change over d0 [%]
CC(C)Oc1ccc(-c2nc(-c3cccc4c3CC[C@@H]4NCCO)no2)cc1C#N [Example 1, 5-[3-[(1S)-1-[(2-hydroxyethyl)amino]-2,3-dihydro-1H-inden-4-yl]-1,2,4-oxadiazol-5-yl]-2-(propan-2-yloxy)benzonitrile, reference compound] | 0.00 | 0.0
[2H]C(C)(C)Oc1ccc(-c2nc(-c3cccc4c3CC[C@@H]4NCCO)no2)cc1C#N [Example 2, 5-[3-[(1S)-1-[(2-hydroxyethyl)amino]-2,3-dihydro-1H-inden-4-yl]-1,2,4-oxadiazol-5-yl]-2-[(2-^2H)propan-2-yloxy]benzonitrile] | 1 | −9.0
[2H]C(C)(C)Oc1ccc(-c2nc(-c3cccc4c3CC[C@@H]4NC([2H])([2H])C([2H])([2H])O)no2)cc1C#N [Example 4, 5-[3-[(1S)-1-[[2-hydroxy(^2H4)ethyl]amino]-2,3-dihydro-1H-inden-4-yl]-1,2,4-oxadiazol-5-yl]-2-[(2-^2H)propan-2-yloxy]benzonitrile] | 5 | −4.6
[2H]C([2H])([2H])C([2H])(Oc1ccc(-c2nc(-c3cccc4c3CC[C@@H]4NCCO)no2)cc1C#N)C([2H])([2H])[2H] [Example 3, 5-[3-[(1S)-1-[(2-hydroxyethyl)amino]-2,3-dihydro-1H-inden-4-yl]-1,2,4-oxadiazol-5-yl]-2-[(^2H7)propan-2-yloxy]benzonitrile] | 7 | 0.0

Second part, the compound after the results:

Clearance % change over d0 [%] | Half-Life % change over d0 [%] | Compound
11 | 0.0 | [2H]C([2H])([2H])C([2H])(Oc1ccc(-c2nc(-c3cccc4c3CC[C@@H]4NC([2H])([2H])C([2H])([2H])O)no2)cc1C#N)C([2H])([2H])[2H] [Example 5, 5-[3-[(1S)-1-[[2-hydroxy(^2H7)ethyl]amino]-2,3-dihydro-1H-inden-4-yl]-1,2,4-oxadiazol-5-yl]-2-[(^2H4)propan-2-yloxy]benzonitrile]
2 | 17.9 | [2H]C(C)(C)Oc1ccc(-c2nc(-c3cccc4c3CC[C@]4([2H])NCCO)no2)cc1C#N [Example 6, 5-[3-[(1S)-1-[(2-hydroxyethyl)amino]-2,3-dihydro(1-^2H)-1H-inden-4-yl]-1,2,4-oxadiazol-5-yl]-2-[(2-^2H)propan-2-yloxy]benzonitrile]
